Source: patent publication EP3967331A1, “ULTRA-SMALL FLUORESCENT ORGANIC NANOPARTICLES” (Centre national de la recherche scientifique, priority 2020, dated 2022)

Test: Nile Red probing of the hydrophobic core
Format: physicochemical
Conditions: Nile Red 200 nM, excitation 540 nm, water
Experimental: In contrast to the out-stretched configuration of a polymer brush, the folded monomolecular nanoparticle is expected to bear a hydrophobic core (Figure 1), similar to that of micelles made of surfactants. To evidence the presence of this core, we used a solvatochromic dye Nile Red, which is a common tool for identifying low polar environment of micelles^81 and single-chain polymeric NPs. Fluorescence spectra of Nile Red at fixed concentration (200 nM) were recorded with addition of different concentrations of fully PEGylated PMAO polymer with 5 mol% BDP1 (Figure12. A drastic increase in the fluorescence intensity of Nile Red was observed accompanied by ∼30 nm blue shift of the emission band (Figure12A,B,D. The increase in the intensity stabilized above 200 nM polymer concentration (Figure12C, which corresponded well to 1/1 dye/polymer molar ratio. Below this concentration, multiple Nile Red molecules per particle can be present, which leads to dye self-quenching, explaining lower intensity at lower polymer concentrations. On the other hand, the blue shifted emission of Nile Red at ∼630 nm indicates the presence of a hydrophobic binding site in these NPs. The NPs were compared with micelles of Tween 80, having a hydrophobic core formed by hydrocarbon chains. […]

Emission of Nile Red: ~640 nm
SMILES: CCCCCCCC/C=C\CCCCCCCC(=O)OCCOCC(OCCO)C1OCC(OCCO)C1OCCO (stereo not shown) [Tween 80]
